The subject of test [1] is rat primary cortical neurons. The experiment in a line: Neurite outgrowth in beta-amyloid (Aβ25-35) intoxicated rat primary cortical neuron culture. Format: cell-based. As to conditions: Aβ25-35 20 μM, 2 days; drug added 1 hour before.
The test system of test [2] is rat primary cortical neurons. The experiment in a line: LDH release, human Aβ1-42 toxicity on rat primary cortical cells. Type of test: cell-based. As to the method:
Primary rat cortical neurons are cultured as described previously.
Briefly, Aβ1-42 peptide was reconstituted in defined culture medium at 40 μM (mother solution) and was slowly shacked at +37° C. for 3 days in the dark for aggregation. The control medium was prepared in the same conditions.
After 10 days of neuron culture, the drug was solved in culture medium (+0.1% DMSO) and then pre-incubated with neurons for 1 hour before the Aβ1-42 application (in a final volume per culture well of 100 μl). […] Cortical neurons were intoxicated for 24 hours. Three separate cultures were performed per condition, 6 wells per condition.
Estradiol-β at 100 and 150 nM were used as a reference test compound and BDNF at 50 ng/ml was used as a positive control. Three separate cultures were performed per condition, […].
Estradiol-β and BDNF were solved in culture medium and pre-incubated for 1 h before the aggregated amyloid-β1-42 application.
Lactate Dehydrogenase (LDH) Activity Assay
This colorimetric assay for the quantification of cell toxicity is based on the measurement of lactate dehydrogenase (LDH) activity released from the cytosol of dying cells into the supernatant.
All values are expressed as mean±s.e.mean of the 3 cultures (n=6 per condition). Statistical analyses were done on the different conditions (ANOVA followed by the Dunnett's test when it was allowed, Statview software version 5.0).

In test [3] the test system is rat endothelial cerebral cells. The experiment in a line: LDH release from rat endothelial cerebral cells, beta-amyloid (Aβ25-35) toxicity. Type of test: cell-based. As to conditions: for Prevention of Aβ25-35 intoxication, LDH release: Aβ25-35 30 μM, 3 days, drug added 1 hour before. How it is done: Primo culture of rat endothelial cerebral cells (Vect-Horus SAS, Marseille) is cultivated on passage 0. At confluence, endothelial cells are dissociated with trypsin EDTA (Pan Biotech Ref: P10-023100). Cells are seeded at a density of 25,000 cells/well in 96-well plates (wells are coated with 30 μl of type I rat collagen at 1.5 mg/ml, Vect-Horus SAS, Marseille) and are cultured in MCBD 131 medium (M-131-500, Invitrogen) supplemented with 1% of microvascular growth supplement (MVGS, S-005-25, Invitrogen). Cells are cultured at 37° C. in a humidified air (95%)/CO2(5%) atmosphere. Half of the medium is changed every other day with fresh medium.
After 4 days, drugs are added to the cell culture medium, at different concentrations, solved in DMSO 0.1% or water.
Cells are then intoxicated with 30 μM of β-amyloid (25-35; Sigma) together with drugs in the same culture medium. Cells are then intoxicated for 3 days.
For each culture, after 3 days of intoxication, the supernatant is collected and analyzed with the Cytotoxicity Detection Kit (LDH, Roche Applied Sciences). This colorimetric assay for the quantification of cell death is based on the measurement of lactate dehydrogenase (LDH) activity released from the cytosol of damaged cells into the supernatant. The optic density (DO) is assessed by spectrophotometer at 492 nm wavelength by a multiscan apparatus (Thermo, Ref Ascent).
Results presented in FIG. 3 are extracted from two independent cultures, 6 wells per condition. All values are expressed as mean±s.e.m. A bilateral Student's t test analysis is performed on raw data. Results are expressed in percentage of cell viability, compared to the control (vehicle).
Drugs are incubated with rat primary cerebral endothelial cells for one hour before Aβ25-35 30 μM intoxication that lasts 3 days.
Three days after this incubation, LDH release in the culture medium is quantified, reflecting the level of cell death.

Test [4] concerns rat primary cortical neurons. The experiment in a line: LDH release in Aβ25-35 intoxicated rat primary cortical neuron culture. Format: cell-based. The following applies: Aβ25-35 20 μM, 2 days; drug added 1 hour before. As to the method: Primary rat cortical neurons are cultured as described by Singer et al., 1999. Briefly pregnant female rats of 15 days gestation are killed by cervical dislocation (Rats Wistar; Janvier) and the foetuses removed from the uterus. The cortexes are removed and placed in ice-cold medium of Leibovitz (L15; Invitrogen) containing 1% of Penicillin-Streptomycin (PS; Invitrogen) and 1% of bovine serum albumin (BSA; Sigma). Cortexes are dissociated by trypsinisation for 20 min at 37° C. (Trypsin EDTA 1×; Invitrogen) diluted in PBS without calcium and magnesium. The reaction is stopped by the addition of Dulbecco's modified Eagle's medium (DMEM; Invitrogen) containing DNAase I grade II (0.1 mg/ml; Roche Diagnostics) and 10% of foetal calf serum (FCS; Invitrogen). Cells are then mechanically dissociated by 3 passages through a 10 ml pipette. Cells are then centrifuged at 180×g for 10 min at 10° C. […] Viable cells are counted in a Neubauer cytometer using the trypan blue exclusion test. Cells are seeded at a density of 30,00-cells/well in 96-well plates (wells are pre-coated with poly-L-lysine (10 μg/ml; […] After 6 days of culture, cells are incubated with drugs (5 concentrations). After 1 hour, cells are intoxicated by 20 μM of β-amyloid (25-35; Sigma) in defined medium without BDNF but together with drugs. Cortical neurons are intoxicated for 2 days. After 2 days of culture, the supernatant is collected and analyzed with the Cytotoxicity Detection Kit (LDH, Roche Applied Sciences). This colorimetric assay for the quantification of cell death is based on the measurement of lactate dehydrogenase (LDH) activity released from the cytosol of damaged cells into the supernatant. The optic density (DO) is assessed by spectrophotometer at 492 nm wavelength by a multiscan apparatus (Thermo, Ref Ascent). […] Two days after this incubation, LDH release in the culture medium is quantified, reflecting the level of cell death.

Test [5] relates to NGF-differentiated PC12 cells. The test is described as follows: MTT viability of NGF-differentiated PC12 after Aβ25-35 intoxication. Format: cell-based, rat. As to conditions: Aβ25-35 10 μM, 24 hours, drug added 1 hour before. As to the method:
PC12 (Pheochromocytoma Rat, ATCC ref: CRL-1721) cells from [NT] CRL-1721) were rapidly thawed in 37° C. water. The supernatant was immediately put in 9 ml of a PC12 proliferation medium containing Dulbecco's modified Eagle's medium DMEM-F12 (Pan Biotech ref: P04-41450) with 15% heat-inactivated horse serum (Invitrogen ref: 16050-130), 2.5% of fetal bovine serum (FBS; Invitrogen ref: 16000-036), 1% of Penicillin 10,000 U/ml and Streptomycin 10 mg/ml (PS; Pan Biotech ref: P06-07100) and 1% of L-glutamine 200 mM (Pan Biotech ref: P04-80100). Cells were centrifuged (800 rounds/min, 4° C. for 5 min) and added in 5 ml PC12 proliferation medium, viable cells were counted with a Malassez cell using the […] exclusion test (Sigma). Then the cells were seeded at 3.10^4 cells per cm^2 in PC12 proliferation medium in 75 cm^2 plastic flasks (Greiner Ref: 658175) precoated with poly-L-lysine (10 μg/ml, Sigma Ref: P2636). Medium was changed every other day. After 3 days of culture, when cells reached 80% of confluence, they were washed in HBSS without calcium and magnesium (Pan Biotech Ref: […] P10-023100). The enzymatic reaction was stopped with PC12 proliferation medium added by 0.5 mg/ml of DNAse 1 grade 2 (Pan Biotech Ref: 760-37780100). […]

For test [6], the system named is human brain microvascular endothelial cells (HBMEC). The experiment in a line: Total length of capillary network in human Aβ1-42 intoxicated HBMEC cultures. Type of test: cell-based. The following applies: Aβ1-42 2.5 μM. As to the method: Human brain microvascular endothelial cell cultures were used to study the protection afforded by candidate compounds on Aβ1-42 toxicity.
Human brain microvascular endothelial cerebral cells (HBMEC, ScienCell Ref: 1000, frozen at passage 10) were rapidly thawed in a water bath at +37° C. […] On matrigel support, endothelial cerebral cells spontaneously started the process of capillary network morphogenesis (47).
Three separate cultures were performed per condition, 6 wells per condition.
The control medium was prepared in the same conditions.
The Aβ1-42 peptide was added 2 hours after HBMEC seeding on matrigel for 18 hours incubation.
Capillary Network Quantification
Per well, 2 pictures with 4× lens were taken using InCell Analyzer™ 1000 (GE Healthcare) in light transmission. All images were taken in the same conditions. Analysis of the angiogenesis networks was done using Developer software (GE Healthcare). The total length of capillary network was assessed.
All values are expressed as mean±s.e.mean of the 3 cultures (n=6 per condition). Statistical analyses were done on the different conditions performing an ANOVA followed by the Dunnett's test when it was allowed (Statview software version 5.0). The values (as %) inserted on the graphs show the amyloid toxicity evolution. Indeed, the amyloid toxicity was taken as the 100% and the test compound effect was calculated as a % of this amyloid toxicity.

Turning to `CC(=O)NCCCS(=O)(=O)O` [Acamprosate], the “Prevention of Aβ25-35 intoxication, neurite outgrowth (neurite length)” value in test [1] is “significantly prevented”. The “Effect on Aβ1-42 intoxication, LDH release, drug alone” value in test [2] (0.32 nM alone, Aβ1-42 2.5 μM) is “no significant effect”.

Turning to `Cc1oncc1C(=O)Nc1ccc(C(F)(F)F)cc1` [Leflunomide], the “Prevention of Aβ25-35 intoxication, LDH release” value in test [3] and in test [4] was “significantly prevented” throughout. In addition, in test [3] (LDH release, rat endothelial cerebral cells), the “Spontaneous cell death in the culture medium” value is listed as “decrease spontaneous cell death”.

Consider `CCCNC(C)C(=O)Nc1ccccc1C` (stereo not drawn) [Prilocain, Prilocaine], for which the “Prevention of Aβ25-35 intoxication, cell viability (MTT)” value in test [5] is “significantly prevented”; in test [5] (listed as prilocaine), “strong neuroprotective effect”.

In the case of `Cc1noc(NS(=O)(=O)c2ccc(N)cc2)c1C` [Sulfisoxazole], the “Prevention of Aβ25-35 intoxication, LDH release” value in test [3] and in test [4] was “significantly prevented” throughout. Further, the “Effect on Aβ1-42 intoxication, total length of capillary network, drug alone” value in test [6] (1.36 nM alone) and in test [6] (alone at the concentrations used in the combination (FIGS. 8-13)) was “no significant effect” throughout. Besides, the “Prevention of Aβ1-42 intoxication, capillary network, drug alone” value in test [6] (dose-response experiments, 18 h) was “significantly prevented”. For the same compound, the “LDH release, prevention of Aβ1-42 intoxication” value in test [2] (drug pretreatment, concentration not given) is recorded as −42%.

For the compound `NS(=O)(=O)Cc1noc2ccccc12` [Zonisamide], the “Prevention of Aβ25-35 intoxication, neurite outgrowth (neurite length)” value in test [1] is on record as “significantly prevented”. Besides, in test [4], the “Prevention of Aβ25-35 intoxication, LDH release” value is recorded as “significantly prevented”.

Values taken from patent publication US9387206B2, “Therapeutic approaches for treating Alzheimer's disease” (PHARNEXT, priority 2009, dated 2016).
